Test results published in publication PMC3426442 (Bioorganic & medicinal chemistry letters, 2012).

How the values were obtained:
[1] = in vitro; compared to A43D (A43D compared to bevirimat)
in vitro = settings: human, microsomes
NL4-3 V370A = settings: V370A versus NL4-3, single cycle infection assay
[2] = ref not given; cited from earlier work

With `C=C(C)[C@@H]1CC[C@]2(C(=O)NCCCCCCCNC(C)=O)CC[C@]3(C)[C@H](CC[C@@H]4[C@@]5(C)CC[C@H](O)C(C)(C)[C@@H]5CC[C@]43C)[C@@H]12` [Compound 1] the “microsomal / metabolic stability in words” value [1] was “poor” and the microsomal CLint (in vitro) was 272 µL/min/mg.

For `Cc1cn([C@H]2C[C@H](N=[N+]=[N-])[C@@H](CO)O2)c(=O)[nH]c1=O` [AZT, 3′-azido-3′-deoxythymidine], the “times less potent against the resistant variant” value (NL4-3 V370A) was 2 times.

In the case of `C=C(C)[C@@H]1CC[C@]2(C(=O)NCCCCCCCCC(=O)N[C@@H](CCC(N)=O)C(=O)OC)CC[C@]3(C)[C@H](CC[C@@H]4[C@@]5(C)CC[C@H](O)C(C)(C)[C@@H]5CC[C@]43C)[C@@H]12` [Compound 13], the “microsomal / metabolic stability in words” value [1] is reported as “improved metabolic stability” and the microsomal CLint (in vitro) is reported as 230 µL/min/mg.

For `COC(=O)[C@H](CCC(N)=O)NC(=O)CCCCCCCCNC(=O)[C@]12CC[C@@H](C(C)C)[C@@H]1[C@H]1CC[C@@H]3[C@@]4(C)CC[C@H](O)C(C)(C)[C@@H]4CC[C@@]3(C)[C@]1(C)CC2` [Compound 38], the “microsomal / metabolic stability in words” value [1] was “improved metabolic stability” and the microsomal CLint (in vitro) was 219 µL/min/mg.

For `CC(C)(C)c1ccc(C(O)CCCN2CCC(C(O)(c3ccccc3)c3ccccc3)CC2)cc1` (stereo not drawn) [Terfenadine], the half-life in vivo [2] is given as “around 3.5 h”.

`C=C(C)[C@@H]1CC[C@]2(C(=O)NCCCCCCCNC(=O)[C@H](CCC(N)=O)NC(=O)OC(C)(C)C)CC[C@]3(C)[C@H](CC[C@@H]4[C@@]5(C)CC[C@H](O)C(C)(C)[C@@H]5CC[C@]43C)[C@@H]12` [Compound 2] gave a microsomal CLint (in vitro) of 366 µL/min/mg.

With `CC(C)[C@@H]1CC[C@]2(C(=O)NCCCCCCCCC(=O)N[C@@H](CCC(N)=O)C(=O)O)CC[C@]3(C)[C@H](CC[C@@H]4[C@@]5(C)CC[C@H](O)C(C)(C)[C@@H]5CC[C@]43C)[C@@H]12` [Compound 39] the microsomal CLint (in vitro) was 280 µL/min/mg.

For `C=C(C)[C@@H]1CC[C@]2(C(=O)NCCCCCCCCC(=O)N[C@@H](CCC(N)=O)C(=O)OCc3ccccc3)CC[C@]3(C)[C@H](CC[C@@H]4[C@@]5(C)CC[C@H](O)C(C)(C)[C@@H]5CC[C@]43C)[C@@H]12` [Compound 15], the “microsomal / metabolic stability in words” value [1] was “improved metabolic stability” and the microsomal CLint (in vitro) was 169 µL/min/mg.
